{"source": "patent US20250025488A1", "about": "“NUCLEIC ACIDS FOR INHIBITING EXPRESSION OF TMPRSS6 AND IRON CHELATORS” (SILENCE THERAPEUTICS GMBH, priority 2018, published 2025)", "system": "HFE−/− mice", "test": "Liver iron concentrations, TMPRSS6 siRNA with or without Deferiprone, HFE−/− mice", "format": "in vivo, mouse", "settings": "3 mg/kg siRNA conjugate s.c. Day 1 or Day 1 and 22, Deferiprone 0.5 mg/ml in drinking water, Day 43", "method": "Three months old C57BL6/J congenic female HFE knock-out mice (−/−) and three months old female C57BL6/J wild type mice (+/+) were used in this study (Herrmann et al., Mol. Med, 2004. 82 (1): p1-3). HFE−/− mice (n=8) were treated on Day 1 (1×) or on Day 1 and on Day 22 (2×) subcutaneously with either PBS (PBS) or 3 mg/kg TMPRSS6 siRNA conjugate (TMP) or 3 mg/kg non-targeting siRNA conjugate (Luc). In addition, cohort 7 to 10 received Deferiprone supplied in drinking water at a concentration of 0.5 mg/ml. Cohorts 1 and 2 were terminated on Day 1 (Predose) all other cohorts on Day 43 (6 weeks after start of the treatment) to collect serum and tissue samples for analyses. Treatment with TMPRSS6 siRNAs enhances the reduction of tissue iron levels by iron chelator. 3 months old HFE−/− (rodent model for hereditary hemochromatosis and iron overload) or wild type mice were used for this study and treated as described in Example 46. Liver tissue samples were collected to assess liver iron concentrations before start of the treatment (predose) and at the end of the study at Day 43 (6 weeks after start of treatments). Liver tissue samples were dried and iron concentrations from dry weights were determined by acid extraction method. At the start of the study liver iron levels were already elevated in HFE−/− compared to wild type control mice (Predose). […]"}
{"smiles": "Cc1c(O)c(=O)ccn1C", "note": "[Deferiprone]", "values": [{"measurement": "Liver iron content", "value": "little to no effect on the liver iron content"}]}
